Patent US20240307409A1, “ARGININE METHYLTRANSFERASE INHIBITOR AND USE THEREOF” (Cytosinlab Therapeutics Co., Ltd., priority 2021, published 2024)

How the values were obtained:
MMA in RKO cells = assay: RKO In Cell Western assay (MMA primary antibody); assay type: cell-based; settings: Homo sapiens, 72 hours, read-out: RKO ICW_EC30
Method: RKO was seeded at a concentration of 20,000 cells/ml into a polylysine-coated 96-well plate (Corning #3599), with 2,000 cells per well and 100 μL of culture mediumper well. 500 nL of compound was added to the 96-well plate. 3) The 96-well plate was incubated in a 37° C., 5% CO2 incubator for 72 hours. After three days, the 96-well plate was taken from the incubator, 100 μL of 8% paraformaldehyde solution was added to each well, and the plate was placed at room temperature for 15 min. After 15 min, the liquid in the plate was shaken out and the plate was washed three times with phosphate buffer (1*PBS). The liquid in the plate was shaken out and 200 μL of membrane-breaking buffer (0.1% (v/v) Tween-20 in PBS) was added and the plate was incubated on a shaker for 30 min. After half an hour, the liquid in the plate was shaken out, and blocking buffer was added and the plate was incubated for two hours at room temperature with shaking. After that, the liquid in the plate was shaken off, and the blocking solution containing primary antibody (MMA primary antibody, CST #8711S, 1:1000 v/v) was added to the 96-well plate and the plate was incubated at 4° C. overnight with shaking. The next day, the plate was washed three times with washing solution (0.05% (v/v) Tween-20 in PBS), and a blocking solution containing secondary antibody (goat anti-rabbit IgG (H+L) Invitrogen #31460, 1:10,000 v/v) was added and the plate was incubated for two hours at room temperature. Afterwards, the 96-well plate was washed four times with washing solution. The TMB mixture was added to the 96-well plate and then the plate was incubated for 15 minutes at room temperature with shaking. After that, the reaction terminating solution was added, and the value was read at OD450 nm using an microplate reader. The plate was washed three times with washing solution, and 50 μL of janusgreen staining solution was added, and the plate was incubated for 15 minutes at room temperature with shaking. The reaction was washed ten times with water until no color residue was left. 200 μL of 0.5 M hydrochloric acid solution was added to each well and the plate was incubated for 10 min at room temperature. The value was read at OD595 nm using Flexstation.
Firstly, the ratio OD450/OD595 was calculated for each well
Each plate had six DMSO negative control groups (ZPE) and six 10 μM positive control groups (HPE), and the average of the control group ratios was used to determine the percentage of activation for each test well. The compounds to be tested were triple diluted with DMSO for a total of 8 concentration points with a starting concentration of 5 μM. The equation for calculating the activation percentage of each test well was: […]

Toledo cells = assay: Toledo cell proliferation inhibition assay; assay type: cell-based; settings: Homo sapiens, Toledo, 144 h; six-day assay, CellTiter-Glo
How it was run: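 Toledo cells seeded at 2000 cells/well in RPMI 1640 + 10% FBS and incubated with compound for six days at 37° C, 5% CO2. Viability was then read by CellTiter-Glo luminescence after 30 min orbital mixing.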

PRMT1 = PRMT1 (Homo sapiens, UniProt Q99873); assay: PRMT1 enzyme activity test; assay type: biochemical; settings: 0.5 nM PRMT1, 3H-SAM, peptide
How it was run: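 Radiometric methylation assay: 0.5 nM PRMT1 preincubated 15 min at room temperature with compound (10-point 3-fold series, 1% DMSO) in pH 8.0 Tris buffer with Tween-20 and DTT. 0.25 uM ³H-SAM and 0.1 uM biotinylated peptide then reacted 120 min. Product captured on streptavidin FlashPlate and counted; IC50 from four-parameter fit of % inhibition.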

MV-4-11 cells = assay: MV-4-11 cell proliferation inhibition assay; assay type: cell-based; settings: Homo sapiens, MV4-11, 144 h; six-day assay, CellTiter-Glo
Method: • A. Purpose: to determine the effects of compounds on Toledo cells through a six-day cell proliferation assay. • B. Reagents and materials: • 1. Cell culture medium: RPMI 1640+10% FBS • 2. 384-well cell culture plate (Corning, item #3764) • 3. 0.4% Taipan Blue Staining Solution (Thermo Fisher, item #T10282) • 4. cell counting plate (Thermo Fisher, item #C10228) • 5. 50 ml reagent reservoir (Corning, item #4870) • 6. 50 ml conical sterile polypropylene centrifuge tube (Thermo Fisher, item #339653) • 7. Automatic cell counter (Thermo Fisher, item #AMQAX1000) • 8. CellTiter-Glo Luminescent Cell Viability Detection Reagent (Promega, item #G7572) • 9. SpectraMax i3x Multi-Mode Enzyme Labeling Instrument (Megaman Molecular Instruments, item #5024062) • C. Experimental method • 1. Resuspending the cells with a pipette. • 2. 0.4% Taipan blue staining solution and Toledo cells were mixed in equal proportion, and the cells were counted using an automatic cell counter. • 3. Toledo cells were diluted to a final concentration of 2000 cells per well and transferred to a 50 ml reagent reservoir. • 4. Diluted Toledo cells were added to a 384-well cell culture plate, 40 ul per well. • 5. The cells were shortly centrifuged and settled. • 6. The cells were incubated in a 37° C., 5% CO2 cell culture incubator. • 7. The substrate in the CellTiter-Glo Luminescent Cell Viability Detection Reagent was mixed with the solution. • 8. After six days, the 384-well cell culture plate was taken from the incubator and 20 ul of configured CellTiter-Glo reagent was added to each well. • 9. 384-well cell culture platewasmixed in an orbital shaker for 30 minutes. • 10. Signal of luminescence was detected with a SpectraMax i3x multi-mode enzyme labeling instrument.
Similar to the Toledo cell proliferation inhibition assay method, the difference was that MV-4-11 cells were used and the cell culture medium was IMDM+10% FBS; in step 3 of the assay method 250 cells per well was used instead;

PRMT1, sequence (Q99873 whole entry): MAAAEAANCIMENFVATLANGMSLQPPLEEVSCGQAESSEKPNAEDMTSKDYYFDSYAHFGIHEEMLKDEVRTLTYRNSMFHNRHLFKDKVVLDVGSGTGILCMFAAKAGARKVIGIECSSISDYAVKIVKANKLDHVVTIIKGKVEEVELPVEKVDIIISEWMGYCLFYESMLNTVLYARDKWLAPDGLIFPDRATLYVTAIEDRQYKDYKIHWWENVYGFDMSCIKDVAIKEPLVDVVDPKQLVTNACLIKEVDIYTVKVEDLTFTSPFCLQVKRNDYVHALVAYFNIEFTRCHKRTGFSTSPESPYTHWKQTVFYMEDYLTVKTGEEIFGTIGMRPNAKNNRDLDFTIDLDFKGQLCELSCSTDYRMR

IC50 (PRMT1) [nM] | IC50 (MV-4-11 cells) [nM] | Compound | EC30 (MMA in RKO cells) [nM] | IC50 (Toledo cells) [nM]
< 50 |  | CNCCN(C)Cc1ncccc1C1CCN(c2ccnc(N3CCCC3)n2)CC1 [P251] | 250 to 2500 | < 1000
< 50 |  | CNCCN(C)Cc1ncccc1C1CCN(c2nccc(N3CCCC3)n2)CC1 [P252] | 250 to 2500 | < 1000
< 50 |  | CCOCC1(COCC)CCC(c2cc3c(cc2CN(C)CCNC)CNC3=O)CC1 [P258] | < 250 | < 1000
 | < 1000 | CNCCN(C)Cc1ccc2[nH]c(=O)[nH]c2c1C1CCN(c2cccc(C)c2)CC1 [P261] |  | 
< 50 |  | CNCCN(C)Cc1ncccc1N1CCc2nc(SC)nc(C)c2CC1 [P323] | > 2500 | < 1000
< 50 |  | CNCCN(C)Cc1cc(F)ccc1C1CCN(S(=O)(=O)c2ccccc2[N+](=O)[O-])CC1 [P325] | 250 to 2500 | < 1000
 | < 1000 | CNCCN(C)Cc1ccc(NCCNCC(=O)NC)nc1C1CCN(c2cccc(C)c2)CC1 [P400] |  | 
< 50 | < 1000 | CNCCN(C)Cc1ccc2nn(C)cc2c1C1CCN(c2cccc(C)c2)CC1 [P401] |  | 
50 to 500 | 1000 to 5000 | CNCCN(C)Cc1ccc2c(c1C1CCN(c3cccc(C)c3)CC1)C(C)(C)C(=O)N2 [P402] |  | 
50 to 500 | < 1000 | CNCCN(C)Cc1ccc2c(c1C1CCN(c3cccc(C)c3)CC1)C(=O)C(=O)N2Cc1ccc(OC)cc1 [P404] |  | 
< 50 | < 1000 | CNCCN(C)Cc1ccc2c(c1C1CCN(c3cccc(C)c3)CC1)C(=O)C(=O)N2 [P405] |  | 
< 50 | < 1000 | CNCCN(C)Cc1ccc2[nH]c(N3CCOCC3)nc2c1C1CCN(c2cccc(C)c2)CC1 [P406, N,N′-dimethyl-N′-[[2-morpholin-4-[1-(m-tolyl)-4-piperidinyl]-1H-benzo[d]imidazol-5-yl]methyl]ethane-1,2-diamine] |  | 
50 to 500 | < 1000 | CNCCN(C)Cc1ccc2[nH]c(C(=O)c3ccccc3)nc2c1C1CCN(c2cccc(C)c2)CC1 [P407] |  | 
 | ≥ 5000 | CNCCN(C)Cc1cc2nc(N)[nH]c2cc1C1CCN(c2cccc(C)c2)CC1 [P408] |  | 
50 to 500 | < 1000 | CNCCN(C)Cc1cnc2[nH]ncc2c1C1CCN(c2cccc(C)c2)CC1 [P409] |  | 
 | < 1000 | CNCCN(C)Cc1ccc2c(c1C1CCN(c3cccc(C)c3)CC1)CC(C)(C)C(=O)N2 [P410] |  | 
 | < 1000 | CNCCN(C)Cc1ncc2[nH]c(=O)[nH]c2c1C1CCN(c2cccc(C)c2)CC1 [P413] |  | 

IC50 (PRMT1) [nM] | IC50 (MV-4-11 cells) [nM] | Compound | EC30 (MMA in RKO cells) [nM] | IC50 (Toledo cells) [nM]
 | < 1000 | CNCCN(C)Cc1ncc2[nH]c(N3CCOCC3)nc2c1C1CCN(c2cccc(C)c2)CC1 [P414] |  | 
 | < 1000 | CNCCN(C)Cc1ncc2[nH]c(C)nc2c1C1CCN(c2cccc(C)c2)CC1 [P415] |  | 
 | < 1000 | CNCCN(C)Cc1ccc2[nH]c(C(F)(F)F)nc2c1C1CCN(c2cccc(C)c2)CC1 [P416] |  | 
 | < 1000 | CNCCN(C)Cc1ccc2[nH]c(-c3cnc(C)nc3)nc2c1C1CCN(c2cccc(C)c2)CC1 [P418] |  | 
 | < 1000 | CCOCC1(COCC)CCC(c2c(CN(C)CCNC)ccc3[nH]c(N4CCOCC4)nc23)CC1 [P419] |  | 
 | < 1000 | CNCCN(C)Cc1ccc2[nH]c(N3CCOCC3)nc2c1C1CCc2cc(F)c(F)cc2CC1 [P420] |  | 
 | < 1000 | CNCCN(C)Cc1ccc2[nH]c(C3=CCOCC3)nc2c1C1CCN(c2cccc(C)c2)CC1 [P422] |  | 
 | < 1000 | CNCCN(C)Cc1ccc2[nH]c(N3CCN(C)CC3)nc2c1C1CCN(c2cccc(C)c2)CC1 [P423] |  | 
 | < 1000 | CNCCN(C)Cc1ccc2[nH]c(N3CCCCC3)nc2c1C1CCN(c2cccc(C)c2)CC1 [P424] |  | 
 | < 1000 | Cc1cccc(N2CCC(c3c(CN(C)CCN)ccc4[nH]c(N5CCOCC5)nc34)CC2)c1 [P425] |  | 
 | < 1000 | CCN(CCNC)Cc1ccc2[nH]c(N3CCOCC3)nc2c1C1CCN(c2cccc(C)c2)CC1 [P426] |  | 
 | < 1000 | CNCCN(C)Cc1ccc2[nH]c(N3CCOCC3)nc2c1C1CCN(c2cccc(C)n2)CC1 [P428] |  | 
 | < 1000 | CNCCN(C)Cc1ccc2[nH]c(N3CCOCC3)nc2c1C1CCN(c2cncc(F)c2)CC1 [P429] |  | 
 | < 1000 | CNCCN(C)Cc1ccc2[nH]c(N3CCNCC3)nc2c1C1CCN(c2cccc(C)c2)CC1 [P440] |  | 
 | < 1000 | CNCCN(C)Cc1ccc2[nH]c(N3CCN(C(=O)CCCC(=O)N4CCN(c5nc6c(C7CCN(c8cccc(C)c8)CC7)c(CN(C)CCNC)ccc6[nH]5)CC4)CC3)nc2c1C1CCN(c2cccc(C)c2)CC1 [P442] |  | 
 | < 1000 | CNCCN(C)Cc1ccc2[nH]c(C3=CCN(C)CC3)nc2c1C1CCN(c2cccc(C)c2)CC1 [P447] |  | 
 | < 1000 | CNCCN(C)Cc1ccc2[nH]c(C3CCN(C)CC3)nc2c1C1CCN(c2cccc(C)c2)CC1 [P448] |  | 
